Laboratory results as given in ChEMBL document CHEMBL1146974, “Identification and structure-activity relationships of a new series of Melanocortin-4 receptor antagonists” (Bioorg Med Chem Lett, 2006).

Legend:
Melanocortin receptor 4 [1] = target: T1, Melanocortin receptor 4 (Homo sapiens, UniProt P32245); assay: Binding affinity to MC4R by membrane filtration assay
Melanocortin receptor 4 [2] = target: T1, Melanocortin receptor 4; assay: Antagonist activity against MC4R by cAMP functional assay
[3] = Plasma half life in iv dosed rat; format: ADME, organism-based
[4] = Oral bioavailability in rat; format: ADME, organism-based; details: in vivo
[5] = target: Voltage-gated inwardly rectifying potassium channel KCNH2 (Homo sapiens, UniProt Q12809); assay: Binding affinity to hERG
Voltage-gated inwardly rectifying potassium channel KCNH2, sequence (Q12809 whole entry): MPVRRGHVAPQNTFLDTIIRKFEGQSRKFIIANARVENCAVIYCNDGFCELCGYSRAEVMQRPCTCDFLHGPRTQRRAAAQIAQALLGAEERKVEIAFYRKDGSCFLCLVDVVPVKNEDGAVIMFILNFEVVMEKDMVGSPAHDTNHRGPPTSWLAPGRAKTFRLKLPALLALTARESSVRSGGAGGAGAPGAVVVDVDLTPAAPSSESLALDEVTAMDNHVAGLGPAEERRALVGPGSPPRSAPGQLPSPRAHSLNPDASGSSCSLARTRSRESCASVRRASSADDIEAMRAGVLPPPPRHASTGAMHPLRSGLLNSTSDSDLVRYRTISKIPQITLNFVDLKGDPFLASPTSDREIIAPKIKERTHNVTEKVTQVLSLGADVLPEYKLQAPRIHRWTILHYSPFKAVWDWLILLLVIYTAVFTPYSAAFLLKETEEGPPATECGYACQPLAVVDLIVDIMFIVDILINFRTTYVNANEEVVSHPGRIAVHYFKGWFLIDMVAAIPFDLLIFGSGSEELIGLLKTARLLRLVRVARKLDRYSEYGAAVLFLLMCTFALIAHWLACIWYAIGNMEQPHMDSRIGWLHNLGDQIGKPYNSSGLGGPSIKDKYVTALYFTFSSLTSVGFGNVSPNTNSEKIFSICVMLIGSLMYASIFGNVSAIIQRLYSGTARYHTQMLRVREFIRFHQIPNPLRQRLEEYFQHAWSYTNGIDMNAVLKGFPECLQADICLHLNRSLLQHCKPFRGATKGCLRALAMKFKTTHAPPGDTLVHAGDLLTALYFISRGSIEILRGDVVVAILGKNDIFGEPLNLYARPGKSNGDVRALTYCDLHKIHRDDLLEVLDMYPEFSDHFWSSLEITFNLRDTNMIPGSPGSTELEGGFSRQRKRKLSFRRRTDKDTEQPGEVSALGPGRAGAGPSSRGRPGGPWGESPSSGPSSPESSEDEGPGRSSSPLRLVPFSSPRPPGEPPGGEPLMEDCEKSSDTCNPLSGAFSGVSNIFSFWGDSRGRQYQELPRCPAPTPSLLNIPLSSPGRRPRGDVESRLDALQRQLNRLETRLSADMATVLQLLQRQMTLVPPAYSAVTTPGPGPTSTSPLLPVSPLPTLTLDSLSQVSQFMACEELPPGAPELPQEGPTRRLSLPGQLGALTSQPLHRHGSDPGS

T1 sequence (P32245 whole entry): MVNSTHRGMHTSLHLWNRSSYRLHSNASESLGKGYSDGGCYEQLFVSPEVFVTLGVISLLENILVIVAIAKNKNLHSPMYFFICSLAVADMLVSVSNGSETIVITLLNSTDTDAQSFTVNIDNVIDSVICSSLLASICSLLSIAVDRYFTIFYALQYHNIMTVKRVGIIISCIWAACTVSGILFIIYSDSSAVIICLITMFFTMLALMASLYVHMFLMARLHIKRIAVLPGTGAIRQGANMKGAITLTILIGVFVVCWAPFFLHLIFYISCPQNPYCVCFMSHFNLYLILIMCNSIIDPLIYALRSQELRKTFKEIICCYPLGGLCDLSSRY

SMILES | Ki (Melanocortin receptor 4 [1]) [nM] | IC50 (Melanocortin receptor 4 [2]) [nM] | half-life [3] [h] | bioavailability [4] [%] | Ki [5] [nM]
CCN(CC)CCCC(C)N=C(N)NC(=O)c1cccc(F)c1OCc1cc(Br)ccc1OC (stereo not given) | 900 | 530 |  |  | 
CCN(CC)CCCC(C)N=C(N)NC(=O)c1cccc(F)c1CCc1ccccc1Cl (stereo not given) | 26000 | > 33000 |  |  | 
COc1ccc(Br)cc1CCc1c(F)cccc1C(=O)/N=C(\N)NCCCNC1CCCCC1 | 80 | 5700 |  |  | 
COc1ccc(Br)cc1CCc1c(F)cccc1C(=O)/N=C(\N)NCCCCN(C)Cc1ccccc1 | 5.1 | 180 |  |  | 
COc1ccc(Br)cc1CCc1c(F)cccc1C(=O)/N=C(\N)NCCCCN1CCc2ccccc2C1 | 26 | 650 |  |  | 
CCN(CC)CCCC(C)/N=C(/N)NC(=O)c1cccc(F)c1CCc1cc(Br)ccc1OC (stereo not given) | 4.3 | 130 |  |  | 
COc1ccc(Br)cc1CCc1c(F)cccc1C1=NCCN1 |  |  | 1 | 4.6 | 
CCN1CCC(C/N=C(/N)NC(=O)c2cccc(F)c2CCc2cc(Br)ccc2OC)CC1 | 2.8 | 97 |  |  | 
CCN(CC)CCCC(C)/N=C(/NC)NC(=O)c1cccc(F)c1CCc1cc(Br)ccc1OC (stereo not given) | 6300 |  |  |  | 
COc1ccc(Br)cc1CCc1c(F)cccc1C(=O)NC(N)=NCCC1CCCCC1 | 2600 |  |  |  | 
CCCCN=C(N)NC(=O)c1cccc(F)c1CCc1cc(Br)ccc1OC | 920 |  |  |  | 
COc1ccc(Br)cc1CCc1c(F)cccc1C(=O)/N=C(\N)NCCCN1CCCCC1 | 3.2 | 330 | 31 | 6.3 | 
COc1ccc(Br)cc1CCc1c(F)cccc1C(=O)/N=C(\N)NCCN1CCCC1 | 190 | 4500 |  |  | 
CCN(CC)CCCC(C)N=C(N)NC(=O)c1cccc(F)c1CCc1ccc2ccccc2c1 (stereo not given) | 690 | 1800 |  |  | 
CCN(CC)CCCC(C)N=C(N)NC(=O)c1cccc(Cl)c1CCc1cc(Br)ccc1OC (stereo not given) | 0.83 | 260 |  |  | 
COc1ccc(Br)cc1CCc1c(F)cccc1C(=O)/N=C(\N)NCCCCN1CCC2CCCCC2C1 (stereo not given) | 21 | 390 |  |  | 
COc1ccc(Br)cc1CCc1c(F)cccc1C(=O)/N=C(\N)NCC(C)C | 770 | 8500 |  |  | 
CCN(CC)CCCC(C)N=C(N)NC(=O)c1cccc(F)c1CCc1cc(OC)cc(OC)c1 (stereo not given) | 14 | 170 |  |  | 
CCN(CC)CCCC(C)/N=C(\NC(=O)c1cccc(F)c1CCc1cc(Br)ccc1OC)Nc1ccccc1 (stereo not given) | 4100 |  |  |  | 
CCN(CC)CCCC(C)N=C(N)NC(=O)c1ccsc1CCc1cc(Br)ccc1OC (stereo not given) | 11 | 260 |  |  | 
COc1ccc(Br)cc1CCc1c(F)cccc1C(=O)/N=C(\N)NCCCCN1CCCCC1 | 0.58 | 70 |  |  | 
COc1ccc(Br)cc1CCc1c(F)cccc1C(=O)/N=C(\N)NCCCCN(C)Cc1cccc2ccccc12 | 57 | 1200 |  |  | 
CCN(CC)CCCC(C)N=C(N)NC(=O)c1cccc(F)c1CCc1cc(Br)ccc1Cl (stereo not given) | 110 | 660 |  |  | 
COc1ccc(Br)cc1CCc1c(F)cccc1C(=O)NC(N)=NCC1CCNCC1 | 13 | 31 |  |  | 
CCN(CC)CCCC(C)/N=C(\NC(=O)c1cccc(F)c1CCc1cc(Br)ccc1OC)NC(C)C (stereo not given) | 2500 | 17000 |  |  | 
CCN(CC)CCCC(C)/N=C(/N)NC(=O)c1cccc(F)c1CCc1cccc2ccccc12 (stereo not given) | 89 | 1500 |  |  | 
COc1ccc(Br)cc1CCc1c(Cl)cccc1C1=NCCN1 |  |  |  |  | 840
COc1ccc(Br)cc1CCc1c(Cl)cccc1C(=O)N=C(N)N | 700 | 2580 |  |  | 
COc1ccc(Br)cc1CCc1c(F)cccc1C(=O)NC(N)=NCCCN1CCN(C)CC1 | 64 | 670 |  |  | 
